Experimental data from PubChem BioAssay (NCI).
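All cell lines were grown in 96-well plates and treated with compound for 48 hours. At the TGI there is no net growth.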

What was measured:
Assay in all cases: DTP human tumour cell line panel, 48 h
M14 melanoma = tested on: M14 melanoma
SNB-75 CNS = tested on: SNB-75 CNS
SF-268 CNS = tested on: SF-268 CNS
K-562 leukemia = tested on: K-562 leukemia
HT29 colon = tested on: HT29 colon
CAKI-1 renal = tested on: CAKI-1 renal
786-0 renal = tested on: 786-0 renal
ACHN renal = tested on: ACHN renal
BT-549 breast = tested on: BT-549 breast
SK-MEL-2 melanoma = tested on: SK-MEL-2 melanoma
UO-31 renal = tested on: UO-31 renal
SW-620 colon = tested on: SW-620 colon
CCRF-CEM leukemia = tested on: CCRF-CEM leukemia
HCT-116 colon = tested on: HCT-116 colon
NCI/ADR-RES ovarian = tested on: NCI/ADR-RES ovarian
SF-539 CNS = tested on: SF-539 CNS
HCT-15 colon = tested on: HCT-15 colon
T-47D breast = tested on: T-47D breast
SK-OV-3 ovarian = tested on: SK-OV-3 ovarian
MDA-MB-435 = tested on: MDA-MB-435
KM12 colon = tested on: KM12 colon
UACC-62 melanoma = tested on: UACC-62 melanoma
MDA-N = tested on: MDA-N
SR leukemia = tested on: SR leukemia
SK-MEL-28 melanoma = tested on: SK-MEL-28 melanoma
MALME-3M melanoma = tested on: MALME-3M melanoma
UACC-257 melanoma = tested on: UACC-257 melanoma
OVCAR-3 ovarian = tested on: OVCAR-3 ovarian
HL-60(TB) leukemia = tested on: HL-60(TB) leukemia
NCI-H460 lung = tested on: NCI-H460 lung
PC-3 prostate = tested on: PC-3 prostate
COLO 205 colon = tested on: COLO 205 colon
U251 CNS = tested on: U251 CNS
A498 renal = tested on: A498 renal
RXF 393 renal = tested on: RXF 393 renal
TK-10 renal = tested on: TK-10 renal
IGROV1 ovarian = tested on: IGROV1 ovarian
OVCAR-8 ovarian = tested on: OVCAR-8 ovarian
OVCAR-5 ovarian = tested on: OVCAR-5 ovarian
EKVX NSCLC = tested on: EKVX NSCLC
MCF7 breast = tested on: MCF7 breast
SN12C renal = tested on: SN12C renal
SNB-19 CNS = tested on: SNB-19 CNS
RPMI-8226 leukemia = tested on: RPMI-8226 leukemia
HCC-2998 colon = tested on: HCC-2998 colon
HOP-62 NSCLC = tested on: HOP-62 NSCLC
MDA-MB-231 breast = tested on: MDA-MB-231 breast
SF-295 CNS = tested on: SF-295 CNS
A549 NSCLC = tested on: A549 NSCLC
SK-MEL-5 melanoma = tested on: SK-MEL-5 melanoma
MOLT-4 leukemia = tested on: MOLT-4 leukemia
DU-145 prostate = tested on: DU-145 prostate
LOX IMVI melanoma = tested on: LOX IMVI melanoma
OVCAR-4 ovarian = tested on: OVCAR-4 ovarian
NCI-H226 lung = tested on: NCI-H226 lung
HOP-92 NSCLC = tested on: HOP-92 NSCLC
NCI-H23 lung = tested on: NCI-H23 lung

Question: With `C/C1=C\CC[C@@]2(C)O[C@@H]2C[C@@H]2[C@H](C/C(C)=C/CC1)OC(=O)C21CC1` as the molecule, how does the TGI (M14 melanoma) read?
Answer: > 100 µM

Question: And the TGI (SNB-75 CNS)?
Answer: > 100 µM

Question: What about the TGI (SF-268 CNS) of the same molecule?
Answer: > 100 µM

Question: What about the TGI (K-562 leukemia) of the same molecule?
Answer: 66.2 µM

Question: And the TGI (HT29 colon)?
Answer: > 100 µM

Question: What about the TGI (CAKI-1 renal) of the same molecule?
Answer: > 100 µM

Question: And the TGI (786-0 renal)?
Answer: > 100 µM

Question: And the TGI (ACHN renal)?
Answer: > 100 µM

Question: What about the TGI (BT-549 breast) of the same molecule?
Answer: > 100 µM

Question: And the TGI (SK-MEL-2 melanoma)?
Answer: > 100 µM

Question: And the TGI (UO-31 renal)?
Answer: > 100 µM

Question: What about the TGI (SW-620 colon) of the same molecule?
Answer: > 100 µM

Question: And the TGI (CCRF-CEM leukemia)?
Answer: 65.8 µM

Question: And the TGI (HCT-116 colon)?
Answer: > 100 µM

Question: What about the TGI (NCI/ADR-RES ovarian) of the same molecule?
Answer: > 100 µM

Question: And the TGI (SF-539 CNS)?
Answer: > 100 µM

Question: What about the TGI (HCT-15 colon) of the same molecule?
Answer: > 100 µM

Question: And the TGI (T-47D breast)?
Answer: > 100 µM

Question: And the TGI (SK-OV-3 ovarian)?
Answer: > 100 µM

Question: What about the TGI (MDA-MB-435) of the same molecule?
Answer: > 100 µM

Question: And the TGI (KM12 colon)?
Answer: > 100 µM

Question: What about the TGI (UACC-62 melanoma) of the same molecule?
Answer: > 100 µM

Question: What about the TGI (MDA-N) of the same molecule?
Answer: > 100 µM

Question: What about the TGI (SR leukemia) of the same molecule?
Answer: 48 µM

Question: And the TGI (SK-MEL-28 melanoma)?
Answer: > 100 µM

Question: What about the TGI (MALME-3M melanoma) of the same molecule?
Answer: > 100 µM

Question: What about the TGI (UACC-257 melanoma) of the same molecule?
Answer: > 100 µM

Question: And the TGI (OVCAR-3 ovarian)?
Answer: > 100 µM

Question: What about the TGI (HL-60(TB) leukemia) of the same molecule?
Answer: 93.7 µM

Question: What about the TGI (NCI-H460 lung) of the same molecule?
Answer: > 100 µM

Question: And the TGI (PC-3 prostate)?
Answer: > 100 µM

Question: And the TGI (COLO 205 colon)?
Answer: > 100 µM

Question: And the TGI (U251 CNS)?
Answer: > 100 µM

Question: What about the TGI (A498 renal) of the same molecule?
Answer: > 100 µM

Question: What about the TGI (RXF 393 renal) of the same molecule?
Answer: > 100 µM

Question: And the TGI (TK-10 renal)?
Answer: > 100 µM

Question: And the TGI (IGROV1 ovarian)?
Answer: 72.7 µM

Question: And the TGI (OVCAR-8 ovarian)?
Answer: > 100 µM

Question: What about the TGI (OVCAR-5 ovarian) of the same molecule?
Answer: > 100 µM

Question: What about the TGI (EKVX NSCLC) of the same molecule?
Answer: > 100 µM

Question: And the TGI (MCF7 breast)?
Answer: > 100 µM

Question: What about the TGI (SN12C renal) of the same molecule?
Answer: > 100 µM

Question: What about the TGI (SNB-19 CNS) of the same molecule?
Answer: > 100 µM

Question: And the TGI (RPMI-8226 leukemia)?
Answer: 46.3 µM

Question: What about the TGI (HCC-2998 colon) of the same molecule?
Answer: > 100 µM

Question: And the TGI (HOP-62 NSCLC)?
Answer: > 100 µM

Question: And the TGI (MDA-MB-231 breast)?
Answer: > 100 µM

Question: And the TGI (SF-295 CNS)?
Answer: > 100 µM

Question: And the TGI (A549 NSCLC)?
Answer: > 100 µM

Question: And the TGI (SK-MEL-5 melanoma)?
Answer: > 100 µM

Question: And the TGI (MOLT-4 leukemia)?
Answer: 61.2 µM

Question: What about the TGI (DU-145 prostate) of the same molecule?
Answer: > 100 µM

Question: For `O=c1[nH]c2ccccc2c(O)c1/C=N/C(=S)NCCc1ccccc1`, which TGI (M14 melanoma) is on record?
Answer: > 100 µM

Question: And the TGI (SNB-75 CNS)?
Answer: > 100 µM

Question: What about the TGI (HT29 colon) of the same molecule?
Answer: > 100 µM

Question: What about the TGI (CAKI-1 renal) of the same molecule?
Answer: > 100 µM

Question: And the TGI (786-0 renal)?
Answer: > 100 µM

Question: And the TGI (ACHN renal)?
Answer: > 100 µM

Question: What about the TGI (BT-549 breast) of the same molecule?
Answer: > 100 µM

Question: What about the TGI (SK-MEL-2 melanoma) of the same molecule?
Answer: > 100 µM

Question: What about the TGI (UO-31 renal) of the same molecule?
Answer: > 100 µM

Question: What about the TGI (SW-620 colon) of the same molecule?
Answer: > 100 µM

Question: What about the TGI (HCT-116 colon) of the same molecule?
Answer: > 100 µM

Question: And the TGI (NCI/ADR-RES ovarian)?
Answer: > 100 µM

Question: What about the TGI (SF-539 CNS) of the same molecule?
Answer: > 100 µM

Question: What about the TGI (HCT-15 colon) of the same molecule?
Answer: > 100 µM

Question: What about the TGI (T-47D breast) of the same molecule?
Answer: > 100 µM

Question: What about the TGI (SK-OV-3 ovarian) of the same molecule?
Answer: > 100 µM

Question: And the TGI (MDA-MB-435)?
Answer: > 100 µM

Question: And the TGI (KM12 colon)?
Answer: > 100 µM

Question: What about the TGI (LOX IMVI melanoma) of the same molecule?
Answer: > 100 µM

Question: What about the TGI (UACC-62 melanoma) of the same molecule?
Answer: > 100 µM

Question: What about the TGI (MDA-N) of the same molecule?
Answer: > 100 µM

Question: What about the TGI (OVCAR-4 ovarian) of the same molecule?
Answer: > 100 µM

Question: And the TGI (SK-MEL-28 melanoma)?
Answer: > 100 µM

Question: What about the TGI (UACC-257 melanoma) of the same molecule?
Answer: > 100 µM

Question: What about the TGI (NCI-H226 lung) of the same molecule?
Answer: > 100 µM

Question: And the TGI (OVCAR-3 ovarian)?
Answer: > 100 µM

Question: What about the TGI (HL-60(TB) leukemia) of the same molecule?
Answer: > 100 µM

Question: What about the TGI (HOP-92 NSCLC) of the same molecule?
Answer: > 100 µM

Question: What about the TGI (NCI-H460 lung) of the same molecule?
Answer: > 100 µM

Question: What about the TGI (PC-3 prostate) of the same molecule?
Answer: > 100 µM

Question: And the TGI (COLO 205 colon)?
Answer: > 100 µM

Question: And the TGI (U251 CNS)?
Answer: > 100 µM

Question: And the TGI (TK-10 renal)?
Answer: > 100 µM

Question: What about the TGI (IGROV1 ovarian) of the same molecule?
Answer: > 100 µM

Question: And the TGI (OVCAR-8 ovarian)?
Answer: > 100 µM

Question: What about the TGI (OVCAR-5 ovarian) of the same molecule?
Answer: > 100 µM

Question: What about the TGI (EKVX NSCLC) of the same molecule?
Answer: > 100 µM

Question: And the TGI (MCF7 breast)?
Answer: > 100 µM

Question: And the TGI (SN12C renal)?
Answer: > 100 µM

Question: What about the TGI (SNB-19 CNS) of the same molecule?
Answer: > 100 µM

Question: And the TGI (NCI-H23 lung)?
Answer: > 100 µM

Question: And the TGI (HCC-2998 colon)?
Answer: > 100 µM

Question: And the TGI (HOP-62 NSCLC)?
Answer: > 100 µM

Question: And the TGI (MDA-MB-231 breast)?
Answer: > 100 µM

Question: And the TGI (SF-295 CNS)?
Answer: > 100 µM

Question: And the TGI (A549 NSCLC)?
Answer: > 100 µM

Question: What about the TGI (SK-MEL-5 melanoma) of the same molecule?
Answer: > 100 µM

Question: And the TGI (MOLT-4 leukemia)?
Answer: > 100 µM

Question: And the TGI (DU-145 prostate)?
Answer: > 100 µM
